Laboratory results as given in US4442044A, “Process for preparing monoesters and diesters of N-alkyl substituted amino methyl phosphonic acid” (priority 1983, dated 1984).

Experiments:
Assay in all cases: post-emergent herbicidal activity, greenhouse
Type in all cases: in vivo
Smartweed = details: 2 WAT
Procedure, shortened: (§1)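 Seeds or propagules sown in compacted top soil, grown 2–3 weeks in greenhouse, then sprayed with compound solution/suspension containing ~0.4% emulsifier at tabulated rates. Injury scored visually versus untreated controls at ~2 and 4 weeks after treatment, expressed as a herbicidal activity index.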

Morningglory = details: 2 WAT
Procedure, shortened: as §1

Johnsongrass = details: Table I, 2 WAT
Procedure, shortened: as §1

Velvetleaf = details: 2 WAT
Procedure, shortened: as §1

Yellow Nutsedge = details: Table I, 2 WAT
Procedure, shortened: as §1

Crabgrass = details: Table II, 2 WAT
Procedure, shortened: as §1

Panicum Spp = details: Table II, 2 WAT
Procedure, shortened: as §1

Hemp Sesbania = details: Table II, 2 WAT
Procedure, shortened: as §1

Wheat = details: Table II, 2 WAT
Procedure, shortened: as §1

Rice = details: Table II, 2 WAT
Procedure, shortened: as §1

Barnyardgrass = details: 2 WAT
Procedure, shortened: as §1

Canada Thistle = details: Table I, 2 WAT
Procedure, shortened: as §1

Lambsquarters = details: 2 WAT
Procedure, shortened: as §1

Downy Brome = details: 2 WAT
Procedure, shortened: as §1

Sorghum = details: Table II, 2 WAT
Procedure, shortened: as §1

Wild Buckwheat = details: Table II, 2 WAT
Procedure, shortened: as §1

Sugar Beet = details: Table II, 2 WAT
Procedure, shortened: as §1

Quackgrass = details: Table I, 2 WAT
Procedure, shortened: as §1

Cocklebur = details: 2 WAT
Procedure, shortened: as §1

Soybean = details: Table II, 2 WAT
Procedure, shortened: as §1

Compound: CCOC(=O)CNCP(=O)(OCC(=O)OCC)OCC(=O)OCC [Example 13, glycine, N-[bis(ethoxycarbonylmethoxy)phosphinylmethyl]-, ethyl ester]
- post-emergent herbicidal activity index (Smartweed; Table I, 5.6 kg/h): 0 (0-24% control)
- post-emergent herbicidal activity index (Smartweed; Table I, 11.2 kg/h): 0 (0-24% control)
- post-emergent herbicidal activity index (Smartweed; Table II, 0.28 kg/h): 0 (0-24% control)
- post-emergent herbicidal activity index (Smartweed; Table II, 1.12 kg/h): 0 (0-24% control)
- post-emergent herbicidal activity index (Smartweed; Table II, 5.6 kg/h): 1 (25-49% control)
- post-emergent herbicidal activity index (Morningglory; Table I, 5.6 kg/h): 0 (0-24% control)
- post-emergent herbicidal activity index (Morningglory; Table I, 11.2 kg/h): 1 (25-49% control)
- post-emergent herbicidal activity index (Morningglory; Table II, 0.28 kg/h): 0 (0-24% control)
- post-emergent herbicidal activity index (Morningglory; Table II, 1.12 kg/h): 0 (0-24% control)
- post-emergent herbicidal activity index (Morningglory; Table II, 5.6 kg/h): 1 (25-49% control)
- post-emergent herbicidal activity index (Johnsongrass; 5.6 kg/h): 0 (0-24% control)
- post-emergent herbicidal activity index (Johnsongrass; 11.2 kg/h): 0 (0-24% control)
- post-emergent herbicidal activity index (Velvetleaf; Table I, 5.6 kg/h): 0 (0-24% control)
- post-emergent herbicidal activity index (Velvetleaf; Table I, 11.2 kg/h): 0 (0-24% control)
- post-emergent herbicidal activity index (Velvetleaf; Table II, 0.28 kg/h): 0 (0-24% control)
- post-emergent herbicidal activity index (Velvetleaf; Table II, 1.12 kg/h): 0 (0-24% control)
- post-emergent herbicidal activity index (Velvetleaf; Table II, 5.6 kg/h): 1 (25-49% control)
- post-emergent herbicidal activity index (Yellow Nutsedge; 5.6 kg/h): 0 (0-24% control)
- post-emergent herbicidal activity index (Yellow Nutsedge; 11.2 kg/h): 0 (0-24% control)
- post-emergent herbicidal activity index (Crabgrass; 0.28 kg/h): 0 (0-24% control)
- post-emergent herbicidal activity index (Crabgrass; 1.12 kg/h): 0 (0-24% control)
- post-emergent herbicidal activity index (Crabgrass; 5.6 kg/h): 3 (75-99% control)
- post-emergent herbicidal activity index (Panicum Spp; 0.28 kg/h): 0 (0-24% control)
- post-emergent herbicidal activity index (Panicum Spp; 1.12 kg/h): 0 (0-24% control)
- post-emergent herbicidal activity index (Panicum Spp; 5.6 kg/h): 0 (0-24% control)
- post-emergent herbicidal activity index (Hemp Sesbania; 0.28 kg/h): 0 (0-24% control)
- post-emergent herbicidal activity index (Hemp Sesbania; 1.12 kg/h): 1 (25-49% control)
- post-emergent herbicidal activity index (Wheat; 0.28 kg/h): 0 (0-24% control)
- post-emergent herbicidal activity index (Wheat; 1.12 kg/h): 0 (0-24% control)
- post-emergent herbicidal activity index (Wheat; 5.6 kg/h): 2 (50-74% control)
- post-emergent herbicidal activity index (Rice; 0.28 kg/h): 0 (0-24% control)
- post-emergent herbicidal activity index (Rice; 1.12 kg/h): 0 (0-24% control)
- post-emergent herbicidal activity index (Rice; 5.6 kg/h): 0 (0-24% control)
- post-emergent herbicidal activity index (Barnyardgrass; Table I, 5.6 kg/h): 0 (0-24% control)
- post-emergent herbicidal activity index (Barnyardgrass; Table I, 11.2 kg/h): 0 (0-24% control)
- post-emergent herbicidal activity index (Barnyardgrass; Table II, 0.28 kg/h): 0 (0-24% control)
- post-emergent herbicidal activity index (Barnyardgrass; Table II, 1.12 kg/h): 0 (0-24% control)
- post-emergent herbicidal activity index (Barnyardgrass; Table II, 5.6 kg/h): 1 (25-49% control)
- post-emergent herbicidal activity index (Canada Thistle; 5.6 kg/h): 0 (0-24% control)
- post-emergent herbicidal activity index (Canada Thistle; 11.2 kg/h): 0 (0-24% control)
- post-emergent herbicidal activity index (Lambsquarters; Table I, 11.2 kg/h): 0 (0-24% control)
- post-emergent herbicidal activity index (Lambsquarters; Table II, 1.12 kg/h): 0 (0-24% control)
- post-emergent herbicidal activity index (Downy Brome; Table I, 5.6 kg/h): 0 (0-24% control)
- post-emergent herbicidal activity index (Downy Brome; Table I, 11.2 kg/h): 0 (0-24% control)
- post-emergent herbicidal activity index (Downy Brome; Table II, 0.28 kg/h): 0 (0-24% control)
- post-emergent herbicidal activity index (Downy Brome; Table II, 1.12 kg/h): 0 (0-24% control)
- post-emergent herbicidal activity index (Downy Brome; Table II, 5.6 kg/h): 0 (0-24% control)
- post-emergent herbicidal activity index (Sorghum; 0.28 kg/h): 0 (0-24% control)
- post-emergent herbicidal activity index (Sorghum; 1.12 kg/h): 0 (0-24% control)
- post-emergent herbicidal activity index (Sorghum; 5.6 kg/h): 1 (25-49% control)
- post-emergent herbicidal activity index (Wild Buckwheat; 0.28 kg/h): 0 (0-24% control)
- post-emergent herbicidal activity index (Wild Buckwheat; 1.12 kg/h): 0 (0-24% control)
- post-emergent herbicidal activity index (Wild Buckwheat; 5.6 kg/h): 0 (0-24% control)
- post-emergent herbicidal activity index (Sugar Beet; 0.28 kg/h): 0 (0-24% control)
- post-emergent herbicidal activity index (Sugar Beet; 1.12 kg/h): 0 (0-24% control)
- post-emergent herbicidal activity index (Sugar Beet; 5.6 kg/h): 0 (0-24% control)
- post-emergent herbicidal activity index (Quackgrass; 5.6 kg/h): 1 (25-49% control)
- post-emergent herbicidal activity index (Quackgrass; 11.2 kg/h): 0 (0-24% control)
- post-emergent herbicidal activity index (Cocklebur; Table I, 5.6 kg/h): 0 (0-24% control)
- post-emergent herbicidal activity index (Cocklebur; Table I, 11.2 kg/h): 0 (0-24% control)
- post-emergent herbicidal activity index (Cocklebur; Table II, 0.28 kg/h): 0 (0-24% control)
- post-emergent herbicidal activity index (Cocklebur; Table II, 1.12 kg/h): 0 (0-24% control)
- post-emergent herbicidal activity index (Cocklebur; Table II, 5.6 kg/h): 1 (25-49% control)
- post-emergent herbicidal activity index (Soybean; 0.28 kg/h): 0 (0-24% control)
- post-emergent herbicidal activity index (Soybean; 1.12 kg/h): 0 (0-24% control)
- post-emergent herbicidal activity index (Soybean; 5.6 kg/h): 1 (25-49% control)
